Ends that are not written are not given here. * marks the point of attachment. RhodamineB = CCN(CC)c1ccc2c(-c3ccccc3C(=O)*)c3ccc(=[N+](CC)CC)cc-3oc2c1
Tested on: NUGC‐4 cells
Assay: Immunofluorescence binding of RhoB‐labeled peptides to fixed NUGC‐4 cells
Type: cell-based, human
Details: ImageJ quantification, Figure 4C

## RhoB‐CG7C: CG7C peptide labeled with rhodamine B, negative control (RhodamineB-CGGGGGGGC; cysteine pairing not given here)
  mean fluorescence intensity (MFI): small positive MFI

— article PMC8486176 (Cancer Science, 2021)
